Test results as given in BindingDB's records for doi:10.1021/jm990590f (Dupont Pharmaceuticals, 2000).

Key:
[1] = target: Corticotropin-releasing factor receptor 1 (Rattus norvegicus) (UniProt P35353); assay: Compound was tested for the inhibition of binding of the radioligand, [125 I-Tyr0]-CRF to rat cerebral cortex membrane
[2] = target: Corticotropin-releasing factor receptor 1 (Rattus norvegicus) (UniProt P35353); assay: Inhibition of corticotropin releasing factor receptor mediated increase in cAMP level using rat cortical homogenates in vitro.

Corticotropin-releasing factor receptor 1 (Rattus norvegicus), sequence (P35353 whole entry, looked up): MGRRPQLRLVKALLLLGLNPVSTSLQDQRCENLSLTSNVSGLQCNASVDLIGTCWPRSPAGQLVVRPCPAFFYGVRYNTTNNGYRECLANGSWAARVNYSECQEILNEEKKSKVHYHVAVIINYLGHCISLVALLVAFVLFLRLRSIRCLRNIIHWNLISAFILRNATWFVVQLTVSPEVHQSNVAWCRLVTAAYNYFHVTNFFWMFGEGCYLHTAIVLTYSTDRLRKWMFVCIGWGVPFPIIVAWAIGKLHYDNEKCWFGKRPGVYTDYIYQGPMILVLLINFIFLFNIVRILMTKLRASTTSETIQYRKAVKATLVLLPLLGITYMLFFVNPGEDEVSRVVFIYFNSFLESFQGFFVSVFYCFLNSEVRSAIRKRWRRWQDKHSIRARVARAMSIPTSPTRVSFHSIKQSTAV

Compound	Ki [1] [nM]	IC50 [2] [nM]
CCN(c1nc(C)cc(N2CCOCC2)n1)c1ccc(C(C)C)cc1Br [(2-Bromo-4-isopropyl-phenyl)-ethyl-(4-methyl-6-morpholin-4-yl-pyrimidin-2-yl)-amine]	63	–
COCC(COC)n1nnc2c(Nc3c(C)cc(C)cc3Cl)nc(C)cc21 [DMP-695]	–	79
